Laboratory results as given in US9724335B2, “Solid dispersions of insoluble drug and preparation method thereof” (SK BIOPHARMACEUTICALS CO., LTD., priority 2012, dated 2017).
Values after ≈ are worked out from the molar mass of the structure shown.

Key:
[1] = Pharmacokinetic test of the solid dispersion for a Beagle dog (oral, plasma CBI by LC-MS/MS); format: in vivo; conditions: oral 40 mg/kg in gelatin capsule, all the time zones (0-24 h), listed as CBI powder
Method: Just before the test, three Beagle dogs were weighed respectively. The solid dispersion of Example 3 as the test group and CBI powder as the control group each weighed in the amount corresponding to 40 mg/kg, were filled into a gelatin capsule and then orally administered. Just before and at 0.5, 1, 2, 4, 6, 8 and 24 h after administration, the blood was collected from the popliteal vein. The plasma was separated from the blood sample by centrifugation and stored/kept at −20° C. until analysis thereof. For the analysis, the plasma sample (0.5 ml) was correctly transferred to a 1.5 ml polypropylene centrifuge tube. This mixture was vortexed for 30 sec and centrifuged at 400 rpm for 10 min. The concentration of CBI in the plasma was analyzed by LC-MS/MS. […] The peak was detected by MRM (multiple reaction monitoring) method using triple-quadrupole mass spectrometry. The ionization was analyzed in the positive mode by using electrospray ionization (ESI) wherein the ion spray temperature was set up at 500° C. In the MRM method, the protonated molecular ions of CBI and the internal standard compound were monitored to have the m/z values of 325.1 and 268.0, and the product ions thus produced were monitored to have the m/z values of 91.0 and 155.0, respectively. The area under the concentration-time curve (AUC) of the drug in the plasma was calculated by the linear trapezoidal method.

[2] = Solubility of CBI in several solvents (24 h stirring at room temperature, HPLC); format: physicochemical; conditions: for solubility at 24 h: organic solvent or mixture, thermodynamic from solid
Method: Under several solvent conditions—i.e., distilled water, methanol, ethanol, acetone and diethyl ether—the solubility of CBI was measured. Specifically, about 5 to 40 mg of CBI was introduced into a 1.5 mL microtube, and 1 mL of the test solvent was added thereto. The mixture was slowly stirred in a rotary stirrer for 24 h under the condition of room temperature until solvent equilibrium was reached. After stirring, the suspended solution was filtered through a 0.45 micrometer membrane filter. The supernatant was collected and diluted by two-fold with the same amount of diluent for analysis. The CBI concentration was analyzed by using high-performance liquid chromatography. The column used in the present experiment was a […], 5 μm C18 column, and the mobile phase was a mixture of 35% acetonitrile, 20% methanol and 45% distilled water by volume. The flow rate was 1.0 mL/min, and the detection was performed at 255 nm. The results are shown in Table 11 wherein the values are represented as an average of three repeats ±standard deviation.

Compound: NC(=O)OCc1cc(-c2ccc(OCc3ccccc3)cc2)no1 [CBI, carbamic acid 3-(4-benzyloxy-phenyl)-isoxazol-5-ylmethyl ester]
- Blood CBI Concentration [1]: below the sensitivity for quantification
- Solubility ([2]; Distilled Water): Not detected
- solubility at 24 h ([2]; Acetone): 24800 µg/mL (≈ 76.5 mM)
- solubility at 24 h ([2]; Diethyl Ether): 700 µg/mL (≈ 2.16 mM)
- solubility at 24 h ([2]; Ethanol): 1500 µg/mL (≈ 4.62 mM)
- solubility at 24 h ([2]; Methanol): 2500 µg/mL (≈ 7.71 mM)
